According to patent publication US20160137639A1, “TRIAZOLE-ISOXAZOLE COMPOUND AND MEDICAL USE THEREOF” (JAPAN TOBACCO INC., priority 2012, published 2016):
Read-outs that look alike come from different tables or passages of the source.

Legend:
[1] = target: T1, human RORγ (Homo sapiens, UniProt P51449); test: Luciferase reporter gene assay of inhibitory effect against RORγ transcriptional activity (GAL4-hRORγ plasmid in CHO cells); type: cell-based
T1 construct: human, NM_005060.3 and from Ser253 to Lys518; expressed in transfected cells; host or cells: CHO cells (transient co-transfection with pG5-Luc reporter)
T1 sequence (P51449 253-518): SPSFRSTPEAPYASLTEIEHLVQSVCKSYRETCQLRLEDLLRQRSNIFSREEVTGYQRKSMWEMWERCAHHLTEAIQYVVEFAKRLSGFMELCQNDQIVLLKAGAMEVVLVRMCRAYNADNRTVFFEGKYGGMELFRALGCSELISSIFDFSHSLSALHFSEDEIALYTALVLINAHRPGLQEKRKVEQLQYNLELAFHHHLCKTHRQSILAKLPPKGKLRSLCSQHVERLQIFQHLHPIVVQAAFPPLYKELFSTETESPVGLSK
Method: (§1) In vitro assay of inhibitory effect against RORγ transcriptional activity
(§2) Inhibitory effect of test article on transcriptional activity of RORγ was measured by means of the following luciferase reporter gene assay.
(§3) A cDNA encoding human and mouse RORγ ligand binding domain (LBD) were obtained based on the reported sequences (Genebank accession number and sequence: human, NM_005060.3 and from Ser253 to Lys518; mouse, NM_011281.2 and from Ile251 to Lys516).
(§4) The cDNA of human RORγ or mouse RORγ was inserted into pFA-CMV vector (Strategene), which expresses GAL4-DNA binding domain fusion protein.
(§5) The resulting plasmids are hereinafter referred to as GAL4-hRORγ plasmid and GAL4-mRORγ plasmid, respectively.
(§6) Human or mouse GAL4-RORγ plasmid was transiently co-transfected into Chinese hamster ovary cells (CHO cells) with […] plasmid, a reporter plasmid expressing firefly luciferase depending on GAL4.
(§7) TransIT CHO transfection reagent (Mirus) was used to co-transfect human or mouse GAL4-RORγ plasmid into CHO cells with pG5-Luc plasmid.
(§8) One day before the assay, CHO cells were suspended in HAM F-12 Nutrient medium containing 10 v/v % fetal bovine serum and seeded at 6×10^6 cells per 175 cm^2 cell culture flask.
(§9) Fifty four micro litters of Transit-CHO reagent was added into a 15 ml tube containing 1.16 ml of HAM F-12 Nutrient medium without fetal bovine serum and incubated at room temperature for 10 min.
A total 36 uL plasmid solution containing the GAL4-hRORγ plasmid (400 ng), pG5-Luc plasmid (9000 ng) and pcDNA3 plasmid (8600 ng) were added into the tube and mixed gently.
(§10) The mixture was incubated at room temperature for 10 min.
(§11) Nine micro litters of CHO Mojo Reagent was then added into each tube and mixed gently. The mixture was incubated at room temperature for 10 min.
(§12) The resultant transfection reagent was applied to the cell culture.
(§13) After incubation at 37° C., 5% CO2 for 4 hr, the transfected CHO cells were harvested by a trypsin treatment.
(§14) The collected cells were resuspended in HAM F-12 Nutrient medium supplemented with 10 v/v % fetal bovine serum and plated into a 384-well-white plate at 8,000 cells/50 uL/well.
(§15) The plate was incubated at room temperature for 1 hour and then further incubated at 37° C., 5% CO2 for 3 hours.
(§16) The test articles were dissolved in dimethylsulfoxide (DMSO) to obtain a concentration of 10 mmol/L. The resulting solution was diluted with the medium just before use and added to the cells in the plate to prepare 8 different concentrations of the test article.
(§17) The final concentration of DMSO was 0.1 v/v % After the addition of the test articles, the cells were incubated at 37° C., 5% CO2 for 2 days.
(§18) RORγ transcriptional activity was detected as the intracellular luciferase activity using SteadyLite HTS Reporter Gene Assay System (Perkin Elmer).
(§19) StedyLite Reagent was diluted five-fold into a solution containing 10 mM Tricine, 0.2% w/v BSA, 0.02% v/v Tween-20 to obtain the luciferase substrate solution.
(§20) After the measurement of the cell viability using Resazurin, the culture media in the 384 well-plate were removed. Then the Luc substrate solution was added into each well.
(§21) After the incubation at room temperature for 10 minutes, luminescence of each well was measured by a microplate reader.
(§22) The luciferase activity derived from the luminescence count in the vehicle-control well treated with 0.1% DMSO alone was defined as 100%, and the luciferase activity in the test article was calculated as a percentage (%-of-control) based on the value of the vehicle-control.
(§23) EC50 value of test article was calculated by curve fitting with GraphPad Prism.
(§24) The luminescence counts at the concentration of the test article where the cytotoxicity was observed were excluded from the data analysis.

[2] = target: T2, mouse RORγ (Mus musculus, UniProt P51450); test: Luciferase reporter gene assay of inhibitory effect against RORγ transcriptional activity (GAL4-mRORγ plasmid in CHO cells); type: cell-based
T2 construct: mouse, NM_011281.2 and from Ile251 to Lys516; expressed in transfected cells; host or cells: CHO cells (transient co-transfection with pG5-Luc reporter)
T2 sequence (P51450 251-516): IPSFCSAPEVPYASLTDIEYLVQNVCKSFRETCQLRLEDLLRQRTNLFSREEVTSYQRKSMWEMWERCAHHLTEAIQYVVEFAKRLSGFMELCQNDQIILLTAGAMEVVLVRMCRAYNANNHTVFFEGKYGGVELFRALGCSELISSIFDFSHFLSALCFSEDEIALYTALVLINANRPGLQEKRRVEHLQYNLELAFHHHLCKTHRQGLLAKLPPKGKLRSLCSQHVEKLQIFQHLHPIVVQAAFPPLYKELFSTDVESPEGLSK
Method: as §1, §2, §3, §4, §5, §6, §7, §8, §9, §10, §11, §12, §13, §14, §15, §16, §17, §18, §19, §20, §21, §22, §23, §24

Structure (SMILES): Cc1ccc(NC(=O)C[C@H](CC(=O)NC(C)(C)C)c2noc([C@H]3C[C@@H](CC(C)C)C3)c2C2CC2)c(C)c1 [Example F-639]
- EC50 ([1]; read-out: LUC EC50 hRORg): < 3 µM
- EC50 ([2]; read-out: LUC EC50 mRORg): < 3 µM

Structure (SMILES): CCOC(=O)[C@H]1CC[C@H](CCc2nnc(CCC(=O)Nc3cccc(Cl)c3C)n2C2CC2)CC1 [Example F-240]
- EC50 ([1]; read-out: LUC EC50 (μM) hRORg): > 3 µM
- EC50 ([2]; read-out: LUC EC50 (μM) mRORg): < 3 µM

Structure (SMILES): CC1(Cc2cc(-c3onc([C@@H](CCC(=O)O)CC(=O)Nc4ccc(Cl)cc4F)c3C3CC3)no2)CC1 [Example E-64]
- EC50 ([1]; read-out: LUC EC50 (μM) hRORg): < 3 µM
- EC50 ([2]; read-out: LUC EC50 (μM) mRORg): < 3 µM

Structure (SMILES): COc1cc(C)ccc1CNC(=O)[C@H]1CCCN(C)[C@@H]1c1nnc(CCC2CCCCC2)n1C1CC1 [Example F-267]
- EC50 ([1]; read-out: LUC EC50 (μM) hRORg): < 3 µM
- EC50 ([2]; read-out: LUC EC50 (μM) mRORg): < 3 µM

Structure (SMILES): Cc1ccc(NC(=O)CC(CCCO)c2nnc(CCCC(C)C)n2C2CC2)c(C)c1 (racemic) [Example F-214]
- EC50 ([1]; read-out: LUC EC50 (μM) hRORg): < 3 µM
- EC50 ([2]; read-out: LUC EC50 (μM) mRORg): < 3 µM

Structure (SMILES): CC(C)CCc1nnc(CCC(=O)Nc2ccccc2Cl)n1C1CC1 [Example F-93]
- EC50 ([1]; read-out: LUC EC50 (μM) hRORg): > 3 µM
- EC50 ([2]; read-out: LUC EC50 (μM) mRORg): > 3 µM

Structure (SMILES): Cc1ccc(NC(=O)C[C@H](OCCO)c2nnc([C@H]3C[C@@H](CC(C)C)C3)n2C2CC2)c(C)c1 [Example F-434]
- EC50 ([1]; read-out: LUC EC50 (μM) hRORg): < 3 µM
- EC50 ([2]; read-out: LUC EC50 (μM) mRORg): < 3 µM

Structure (SMILES): Cc1c(Cl)cccc1NC(=O)CCc1nnc(CCC2CCC(F)(F)CC2)n1C1CC1 [Example F-254]
- EC50 ([1]; read-out: LUC EC50 (μM) hRORg): < 3 µM
- EC50 ([2]; read-out: LUC EC50 (μM) mRORg): < 3 µM

Structure (SMILES): Cc1cc(Cl)ccc1NC(=O)C[C@H](CC(C)C)c1nnc(-c2cc(CC(C)C)on2)n1C1CC1 [Example F-606]
- EC50 ([1]; read-out: LUC EC50 hRORg): < 3 µM
- EC50 ([2]; read-out: LUC EC50 mRORg): < 3 µM

Structure (SMILES): Cc1ccc(NC(=O)C[C@H](CCCC(=O)O)c2noc(-c3cc(CCC(C)C)on3)c2C2CC2)c(Cl)c1 [Example E-21]
- EC50 ([1]; read-out: LUC EC50 (μM) hRORg): < 3 µM
- EC50 ([2]; read-out: LUC EC50 (μM) mRORg): < 3 µM

Structure (SMILES): Cc1ccc(NC(=O)CC(CCCN2C(=O)c3ccccc3C2=O)c2nnc(CCCC(C)C)n2C2CC2)c(C)c1 (racemic) [Example F-281]
- EC50 ([1]; read-out: LUC EC50 (μM) hRORg): < 3 µM
- EC50 ([2]; read-out: LUC EC50 (μM) mRORg): < 3 µM

Structure (SMILES): Cc1ccc(NC(=O)CCc2nnc(-c3ccc(C(C)C)cc3)n2C2CC2)c(C)c1 [Example F-320]
- EC50 ([1]; read-out: LUC EC50 (μM) hRORg): < 3 µM
- EC50 ([2]; read-out: LUC EC50 (μM) mRORg): < 3 µM

Structure (SMILES): COc1ccc(CNC(=O)CCc2nnc(CCC(C)C)n2C2CC2)c(C)c1 [Example F-108]
- EC50 ([1]; read-out: LUC EC50 (μM) hRORg): > 3 µM
- EC50 ([2]; read-out: LUC EC50 (μM) mRORg): > 3 µM

Structure (SMILES): CC(=O)N1C[C@H](C(=O)Nc2ccc(C)cc2C)[C@@H](c2nnc([C@H]3C[C@@H](OC(C)C)C3)n2C2CC2)C1 [Example F-336]
- EC50 ([1]; read-out: LUC EC50 (μM) hRORg): > 3 µM
- EC50 ([2]; read-out: LUC EC50 (μM) mRORg): > 3 µM

Structure (SMILES): Cc1ccc(NC(=O)CC(Cc2ccccn2)c2nnc([C@H]3C[C@@H](CC(C)C)C3)n2C2CC2)c(C)c1 (mixture of isomers) [Example F-422]
- EC50 ([1]; read-out: LUC EC50 (μM) hRORg): < 3 µM
- EC50 ([2]; read-out: LUC EC50 (μM) mRORg): < 3 µM

Structure (SMILES): Cc1ccc(NC(=O)CC(CCCN(C)C)c2nnc(CCCC(C)C)n2C2CC2)c(C)c1 (racemic) [Example F-288]
- EC50 ([1]; read-out: LUC EC50 (μM) hRORg): > 3 µM
- EC50 ([2]; read-out: LUC EC50 (μM) mRORg): > 3 µM

Structure (SMILES): Cc1ccc(NC(=O)CC(CCC(=O)N(C)C)c2nnc(CCCC(C)C)n2C2CC2)c(C)c1 (racemic) [Example F-286]
- EC50 ([1]; read-out: LUC EC50 (μM) hRORg): < 3 µM
- EC50 ([2]; read-out: LUC EC50 (μM) mRORg): < 3 µM

Structure (SMILES): Cc1ccc(NC(=O)C[C@H](c2nnc([C@H]3C[C@@H](CC(C)C)C3)n2C2CC2)[C@H]2C[C@@H](O)C2)c(C)c1 [Example F-514]
- EC50 ([2]; read-out: LUC EC50 mRORg): > 3 µM

Structure (SMILES): Cc1ccc(NC(=O)C[C@@H](c2nnc([C@H]3C[C@@H](CC(C)C)C3)n2C2CC2)[C@H]2C[C@H](O)C2)c(C)c1 [Example F-523]
- EC50 ([2]; read-out: LUC EC50 mRORg): < 3 µM

Structure (SMILES): Cc1ccc(NC(=O)[C@H](CC(=O)O)Cc2noc([C@H]3C[C@@H](CC(C)(C)C)C3)c2C2CC2)c(Cl)c1 [Example F-678]
- EC50 ([1]; read-out: LUC EC50 hRORg): < 3 µM

Structure (SMILES): CC(=O)N1C[C@H](C(=O)Nc2ccc(C)cc2C)[C@@H](c2nnc(CCCC(C)(C)C)n2C2CC2)C1 [Example F-432]
- EC50 ([1]; read-out: LUC EC50 (μM) hRORg): < 3 µM

Structure (SMILES): Cc1ccc(NC(=O)C[C@H](c2nnc([C@H]3C[C@@H](CC(C)C)C3)n2C2CC2)[C@H]2C[C@H](O)C2)c(C)c1 [Example F-522]
- EC50 ([2]; read-out: LUC EC50 mRORg): > 3 µM

Structure (SMILES): CCn1c(CCC2CCCCC2)nnc1[C@H]1C[C@@H]1C(=O)Nc1cccc2ccccc12 (racemic) [Example F-37]
- EC50 ([2]; read-out: LUC EC50 (μM) mRORg): < 3 µM

Structure (SMILES): Cc1ccc(NC(=O)C[C@@H](c2nnc([C@H]3C[C@@H](CC(C)C)C3)n2C2CC2)[C@H]2C[C@@H](O)C2)c(C)c1 [Example F-515]
- EC50 ([2]; read-out: LUC EC50 mRORg): < 3 µM
